Test results taken from ChEMBL document CHEMBL1148510, “Synthesis and photocytotoxic activity of new chlorin-polyamine conjugates” (Bioorg Med Chem Lett, 2006).
Active and inactive are the calls of the source. The rule behind the calls is not given here.

Columns and labels:
[1] = Partition coefficient, Log P of the compound; type: physicochemical; details: octanol/water
K562 [2] = assay: Cytotoxicity against human K562 cells at 2 uM after 24 hrs in dark; type: functional, cell-based
K562 [3] = assay: Photocytotoxicity against human K562 cells at 2 uM; type: functional, cell-based

CN(CCCN)CCCCNCCCCNC(=O)c1ccc(-c2c3nc(c(-c4ccc(C(=O)NCCCCNCCCCN(C)CCCN)cc4)c4ccc([nH]4)c(-c4ccc(C(=O)NCCCCNCCCN(C)CCCCN)cc4)c4ccc([nH]4)c(-c4ccc(C(=O)NCCCCNCCCN(C)CCCCN)cc4)c4nc2CC4)C=C3)cc1
logP [1]: -1.87

C=Cc1c(C)c2cc3nc(c(CC(=O)NCCCCNCCCN(C)CCCCNCCCN)c4nc(cc5[nH]c(cc1[nH]2)c(C)c5CC)C(C)=C4C(=O)NCCCCNCCCN(C)CCCCNCCCN)[C@@H](CCC(=O)NCCNCCCN(C)CCCCNCCCN)[C@@H]3C
Activity (K562 [2]): Active
Activity (K562 [3]): Active
logP [1]: -0.83

C=Cc1c(C)c2cc3nc(c(CC(=O)NCCCCNCCCN(C)CCCCN)c4nc(cc5[nH]c(cc1[nH]2)c(C)c5CC)C(C)=C4C(=O)NCCCCNCCCN(C)CCCCN)[C@@H](CCC(=O)NCCNCCCN(C)CCCCN)[C@@H]3C
Activity (K562 [2]): Active
Activity (K562 [3]): Active
logP [1]: -0.45

CN(CCCCNCCCCNC(=O)c1ccc(-c2c3nc(c(-c4ccc(C(=O)NCCCCNCCCCN(C)CCCNCCCN)cc4)c4ccc([nH]4)c(-c4ccc(C(=O)NCCCCNCCCN(C)CCCCNCCCN)cc4)c4ccc([nH]4)c(-c4ccc(C(=O)NCCCCNCCCN(C)CCCCNCCCN)cc4)c4nc2CC4)C=C3)cc1)CCCNCCCN
logP [1]: -1.98
